Reference: PubChem BioAssay (NCI)
Values joined by “and” are separate entries in the source; they are usually repeats but may differ in a detail not shown here. Equal entries are not always repeated.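 Five compound concentrations were applied to cells in 96-well plates for 48 hours; endpoints were derived by simple linear interpolation of the resulting dose-response curve. GI50 marks 50% less growth. The concentration for full growth arrest is given as TGI.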

Experiments:
Test in all cases: NCI anticancer screen, dose series, 48 h
CAKI-1 renal = test system: CAKI-1 renal
RXF 393 renal = test system: RXF 393 renal
KM12 colon = test system: KM12 colon
NCI-H226 lung = test system: NCI-H226 lung
DU-145 prostate = test system: DU-145 prostate
SK-OV-3 ovarian = test system: SK-OV-3 ovarian
MALME-3M melanoma = test system: MALME-3M melanoma
A498 renal = test system: A498 renal
TK-10 renal = test system: TK-10 renal
HL-60(TB) leukemia = test system: HL-60(TB) leukemia

Structure (SMILES)	TGI (CAKI-1 renal)	TGI (RXF 393 renal)	TGI (KM12 colon)	TGI (NCI-H226 lung) [µM]	TGI (DU-145 prostate)	TGI (SK-OV-3 ovarian)	TGI (MALME-3M melanoma)	TGI (A498 renal)	TGI (TK-10 renal) [µM]	TGI (HL-60(TB) leukemia) [µM]	GI50 (RXF 393 renal)	GI50 (KM12 colon)	GI50 (DU-145 prostate) [µM]	GI50 (SK-OV-3 ovarian)	GI50 (HL-60(TB) leukemia)	GI50 (TK-10 renal)	GI50 (CAKI-1 renal) [µM]	GI50 (NCI-H226 lung) [µM]	GI50 (MALME-3M melanoma) [µM]	GI50 (A498 renal) [µM]
COc1cc2c(cc1O)-c1c(cnn1-c1ccc([N+](=O)[O-])cc1)CCC2	38.5 µM	> 100 µM	31.7 µM	47.5	> 100 µM	> 100 µM	29.2 µM	80.3 µM	32.6											
CS(=O)(=O)OCC1OC(n2ccc(NC(=O)c3ccccc3)nc2=O)CC1OS(C)(=O)=O (configuration not stated)	> 100 µM		> 100 µM	> 100	> 100 µM	> 100 µM		> 100 µM	> 100	> 100										
N#C/C(=N\Nc1ccc(Cl)cc1)C(=O)Nc1cc(-c2ccccc2)nn1-c1ccccc1		6.32 µM	> 100 µM		> 100 µM	6.66 µM			> 100	9.38	2.06 µM	2.92 µM	3.9	2.28 µM	3.05 µM	4.82 µM				
CC1(Cl)CC2OC3(Br)C=CC(C)(O)C2(CC1Br)C3(C)C (configuration not stated)	> 100 µM	> 100 µM	> 100 µM	> 100		> 100 µM	> 100 µM	> 100 µM	> 100	> 100										
CC(=O)Oc1cc(C)c2c(c1OC(C)=O)CC1(O2)[C@@H](C)CCC2[C@@]3(C)CC[C@H](OC(C)=O)C(C)(C)C3CC[C@]21C (some centres not stated)	4.3 µM	2.84 µM	18.2 µM	25.6		25.5 µM		21.4 µM	11.1											
Nc1nc2sc3ccccc3c(=O)n2n1	> 100 µM	> 100 µM	> 100 µM	> 100		> 100 µM	> 100 µM		> 100	> 100										
CC(=O)N1c2ccccc2C2=CC3C4C(=O)N(c5ccccc5)C(=O)C4C21C1C(=O)N(c2ccccc2)C(=O)C31 (configuration not stated)	> 100 µM		> 100 µM			> 100 µM	> 100 µM	> 100 µM	> 100	58.8										
Cc1noc2cccc(OCc3ccccc3)c12	> 100 µM	> 100 µM	> 100 µM	> 100		> 100 µM	> 100 µM		> 100	> 100										
O=S(=O)(N/N=C/c1ccc(Cl)c(Cl)c1)c1ccccc1	> 100 µM	63.2 µM	> 100 µM	> 100		> 100 µM	> 100 µM	92.5 µM	> 100	> 100										
Cc1cc(Cl)cc2c(N=Nc3ccccc3[N+](=O)[O-])c(O)[nH]c12	> 100 µM	> 100 µM	> 100 µM		> 100 µM	> 100 µM		> 100 µM	> 100	> 100										
COC(c1cccc(C(O)(C(F)(F)F)C(F)(F)F)c1)(C(F)(F)F)C(F)(F)F	39.7 µM	35.9 µM	33.9 µM	37.8		34.4 µM	35.3 µM	34.4 µM	36.6											
CCOC(=O)N1C2C=C(C)C(ON2C(=O)c2ccccc2)C2C(C)C(=O)N21 (configuration not stated)		> 100 µM	> 100 µM	> 100		> 100 µM	> 100 µM	> 100 µM	> 100	> 100										
CC(=O)CCc1ccc(OC2OC(COC(=O)c3cc(O)c(O)c(O)c3)C(O)C(O)C2OC(=O)/C=C/c2ccccc2)cc1 (configuration not stated)	> 100 µM	47.2 µM	43.5 µM	37	42.8 µM	68.5 µM	46.2 µM	48 µM	61.3		19 µM	21 µM	23.5	29.8 µM		23.8 µM	29.7	16.9	26.8	23.2
N#CC(/C(=N/NC(=O)C(=O)NN)C(=O)Nc1nc([N+](=O)[O-])cs1)c1ccc(Cl)cc1 (configuration not stated)		> 100 µM	> 100 µM	> 100			> 100 µM		> 100	> 100										
Cc1ccccc1C1=[N+]([O-])c2ccccc2C1=O		37.3 µM	25.9 µM	30.7		> 100 µM	33.2 µM	> 100 µM	32.2	28.9										
COc1ccc2c(c1)C(=O)N1CCOC1C2C(=O)O (configuration not stated)	> 100 µM		> 100 µM			> 100 µM		> 100 µM	> 100	> 100										
O=C(C=Nc1ccccc1C(=O)[O-])c1cccs1.O=C(C=Nc1ccccc1C(=O)[O-])c1cccs1.[Co+2]	> 100 µM		> 100 µM			> 100 µM	> 100 µM	> 100 µM	> 100	> 100										
O=c1cc(-c2ccccc2)oc2cc(O)c(O)c(O)c12	19 µM	> 100 µM	62.5 µM	58	> 100 µM	> 100 µM		> 100 µM	81.2	> 100	78.6 µM	18.2 µM	25.1	59.6 µM	55.1 µM	28 µM	4.57	19.3		6.94
C=C(C)C1Cc2c(cc(OC)c3c(=O)c4cccc(O)c4oc23)O1 (configuration not stated)	30.2 µM	35.9 µM	> 100 µM	44	> 100 µM	33.7 µM	48.4 µM		46.9	> 100										
CN(CCCCCl)P(=O)(OCc1ccc([N+](=O)[O-])o1)OCC1OC(n2ccc(N)nc2=O)C(F)(F)C1O (configuration not stated)		> 100 µM	> 73.9 µM	> 100	> 28.4 µM	> 100 µM		> 74.5 µM	> 82.7	17.7	> 100 µM	14.8 µM	0.188	2.22 µM	1.56 µM		0.223	15.7		5.8

Structure (SMILES)	TGI (CAKI-1 renal)	TGI (RXF 393 renal)	TGI (KM12 colon)	TGI (NCI-H226 lung) [µM]	TGI (DU-145 prostate)	TGI (SK-OV-3 ovarian)	TGI (MALME-3M melanoma)	TGI (A498 renal)	TGI (TK-10 renal) [µM]	TGI (HL-60(TB) leukemia) [µM]	GI50 (RXF 393 renal)	GI50 (KM12 colon)	GI50 (DU-145 prostate) [µM]	GI50 (SK-OV-3 ovarian)	GI50 (HL-60(TB) leukemia)	GI50 (TK-10 renal)	GI50 (CAKI-1 renal) [µM]	GI50 (NCI-H226 lung) [µM]	GI50 (MALME-3M melanoma) [µM]	GI50 (A498 renal) [µM]
CCCCCCCC(=O)NCC(O)CNC(=O)CCCCCCC	> 100 µM	> 100 µM	> 100 µM	> 100		> 100 µM	> 100 µM	> 100 µM	> 100	> 100										
O=C(O)C1=CCCc2ccc3ccccc3c21		> 100 µM	> 100 µM	> 100		> 100 µM	> 100 µM	> 100 µM	> 100											
O=C(Nc1ccccc1)c1nn(-c2cc(S(=O)(=O)O)c([N+](=O)[O-])cc2Cl)[n+](-c2cc(S(=O)(=O)[O-])c([N+](=O)[O-])cc2Cl)n1	> 100 µM	> 100 µM	> 100 µM	> 100	> 100 µM	> 100 µM	> 100 µM		> 100	> 100										
CC(C)(O)C#Cc1ccc(/C=C/C(=O)c2ccccc2)s1	30.6 µM	28.7 µM	14.4 µM	42.3	28.1 µM	30.1 µM	36.1 µM	32.2 µM	35.8		14.7 µM	4.37 µM	14.9	16.5 µM		19.4 µM	16.9	18.8	16.4	17.7
CSc1cccc(-n2c3nc(=O)n(C)c(=O)c-3nc3ccccc32)c1	19.7 µM		43.2 µM	28.9		96 µM	11.4 µM	25.3 µM	40.9	16.7										
O=S(=O)(Cc1ccc(Cl)cc1Cl)c1ccc(Cl)cc1	> 100 µM	7.55 µM	> 100 µM	> 100	16.1 µM	> 57.7 µM		16.3 µM	> 53.9	17.7	1.4 µM	0.372 µM	1.74	1.47 µM	0.37 µM	1.01 µM	0.52	4.52		0.317
CC(=O)O[C@@]12CO[C@@H]1C[C@H](O)[C@@]1(C)C(=O)[C@H](O)C3=C(C)[C@@H](OC(=O)[C@H](O)[C@@H](NC(=O)OC(C)(C)C)c4ccccc4)C[C@@](O)([C@@H](OC(=O)c4ccccc4)[C@H]21)C3(C)C	81.8 µM		> 62.2 µM	43.4	78.2 µM	0.0491 µM		56.1 µM			0.0252 µM and 0.0165 µM	0.00708 µM and 0.0021 µM		0.0521 µM and < 0.0174 µM	0.00316 µM and 0.00342 µM	0.0327 µM and 0.00788 µM	0.146	0.00366		0.0518
CCN(CC)CCCn1cnc2ncccc2c1=O	> 100 µM	> 100 µM	> 100 µM	> 100		> 100 µM	> 100 µM		> 100											
C/C=C/C1=C(Cl)C(=O)[C@@H](Cl)[C@@]1(O)C(=O)OC	8.4 µM	4.76 µM	22.2 µM	15.7		30.6 µM	6.21 µM	14.3 µM	9.14	4.28										
O=C1c2cccnc2C(=O)C2C3C=CC(C3)C12 (configuration not stated)	31.9 µM	10.3 µM	32 µM	32	19.8 µM	43.9 µM	29.5 µM	44.7 µM	31.9											
COc1cc2c3c(n(CCCN(CCN)CCCn4c5c(c6cc(OC)c(OC)cc6c4=O)C(=O)c4cc6c(cc4-5)OCO6)c(=O)c2cc1OC)-c1cc2c(cc1C3=O)OCO2	3.23 µM	12.7 µM	> 37 µM	2.76	> 100 µM	> 91.6 µM		25.7 µM	> 24.8		3.39 µM	4.04 µM	0.663	1.41 µM		3.11 µM	0.271	0.449		6.71
O=c1c2ccccc2c(Br)c(Br)c2ccccc12	4.39 µM	12.7 µM	29.6 µM	79.5	15.8 µM	> 100 µM	7.65 µM	23 µM	18		3.32 µM	12.5 µM	4.02	38.3 µM		3.91 µM	1.78	24.1	2.66	5.37
S=C(N/N=C(/c1ccccc1)c1ccccn1)N1CCCCC1	1.66 µM and 2.33 µM	1.43 µM and 3.38 µM	1.79 µM and 2.11 µM		2.32 µM and 2.87 µM	2.36 µM and 1.24 µM	2.27 µM and 2.2 µM	1.43 µM and 2.37 µM	1.97		0.0129 µM	0.00123 µM	1.11	< 0.001 µM			0.107	0.00148	0.00735	0.0815
O=C(CCC(=O)Nc1cccc(Cl)c1)CC(=O)c1ccc(F)cc1	> 100 µM		> 100 µM	> 100		> 100 µM	> 100 µM		> 100	> 100										
CCOC(=O)c1sc2ncn(Cc3cccc(Br)c3)c(=O)c2c1C	97.5 µM	> 100 µM	> 100 µM	85	> 100 µM	> 100 µM		80.1 µM		> 100	29 µM	28.9 µM	88.8	> 100 µM	28.7 µM		24.6	19.8		18.2
[Cl][Sn]([Cl])([c]1ccccc1)[c]1ccccc1	6.52 µM		39.1 µM	32.2		31.6 µM	8.01 µM		29.7	31.1	2.79 µM	19.6 µM		17.4 µM	4.03 µM	15.7 µM	2.29	17.7	2.68	
CN(C)CCN(C)CC1COC(C)(C)O1 (configuration not stated)	> 100 µM	> 100 µM	> 100 µM	> 100		> 100 µM	> 100 µM	> 100 µM	> 100	> 100										
C/C(=N\NC(N)=S)c1cc(C)c(C)cc1C	> 100 µM	97.2 µM	71.2 µM	> 100		> 100 µM	92 µM	> 100 µM	> 100	65.5										
Cc1oc2c(C)c3oc(=O)cc(C)c3cc2c1CNC(=O)[C@@H]1OCCOCCOCCOCCOCCOC1C(=O)O (some centres not stated)	> 100 µM	> 100 µM	> 100 µM	> 100		> 100 µM	> 100 µM	> 100 µM	> 100	> 100										
